Laboratory results as given in US20210046002A1, “AMELIORATION OF AUTOIMMUNE UVEITIS THROUGH BLOCKADE OF CSF1R” (Massachusetts Eye and Ear Infirmary, priority 2018, published 2021).
Entries after “also recorded” stand apart in the source; their conditions may differ. Values belong to the compound of their own block, whether it stands above or below them.

Tests used:
[1] = Behavior and health observation on supplemented diet; format: in vivo, mice; conditions: chow containing 1200 p.p.m
Experimental: Microglia depletion was performed using Cx3cr1^CreER×B6-iDTR (TG) mice or chow containing a small molecule CSFR1 inhibitor (Plexxikon Inc, Berkely, Calif., USA). To generate TG mice, Cx3cr1^CreER mice, which express Cre-ER fusion protein from endogenous CX3CR1 promoter enhance elements, were crossed with B6-iDTR mice, which contain a flox-STOP-flox diphtheria toxin receptor (DTR) in the ROSA26 locus. In this TG mice system, the Cre recombinase activation under the control of the Cx3cr1 promoter can be induced by tamoxifen, which leads to the surface expression of DTR on CX3CR1-expressing cells. The activation of Cre recombinase was induced by 5 consecutive days of tamoxifen administration via eye drops (10 μl/drop of 5 mg/ml in corn oil) three times a day at 6 weeks old. Then diphtheria toxin (DTX) (Sigma-Aldrich) was administered into the anterior chamber (a.c.) (25 ng in 1 μl of saline) to deplete CX3CR1-expressing. The control mice were given saline (a.c.). For microglia depletion using a small molecule CSFR1 inhibitor, mice were fed the control chow (AIN-76) or the chow containing 1200 p.p.m of the CSF1R inhibitor PLX 5622 one week prior to RD creation.

[2] = Lymph node and spleen weight in EAU; format: in vivo, C57BL/6 mice; conditions: day 21
[3] = test system: lymph node and spleen cells; test: Lymphocyte proliferation assay (modified MTT) of lymph node and spleen cells; format: cell-based, C57BL/6 mice; conditions: IRBP-immunized animals, lymph nodes and spleens, day 14 and 21
Experimental: The draining LN and spleens were collected and the cells were suspended at 2×10^5 per 200 μL medium in 96-well flat-bottom plates. Triplicated cells were cultured in the presence of 10 μg/mL IRBP-p, 1 μg/mL Concanavalin A (Con A; Sigma-Aldrich), or medium alone. After incubation for three days, 100 μl of supernatant in the culture medium was collected. Cell proliferation during the last 4 hours of 72 hours cultures was measured by modified MTT assay using Cell Counting Kit-8 (Sigma-Aldrich).

[4] = test system: circulating systemic immune cells; conditions: previous studies [31, 32]; cited from earlier work
[5] = test system: EAU; test: Adoptive transfer EAU; format: in vivo, mice
Experimental: Adoptive transfer EAU was induced as previously described with brief modification. Briefly, donor mice were immunized as described above and the spleens and draining lymph nodes (LNs) were collected on day 14 post-immunization. Lymphocytes from spleens and draining LNs were culture in the presence of 10 μg/ml IRBP-p and 10 ng/ml IL-23 (R&D systems, Minneapolis, Minn.) for 72 hours in RPMI 1640 supplemented with 10% FBS (Gibco), 2 mM glutamine (Gibco), and 100 U/ml penicillin and 100 μg/ml streptomycin. The non-adherent cells in the entire suspension were transferred to new dishes on day one and two of culture. After 3 days, the activated lymphocytes were purified by gradient centrifugation on Histopaque 1083 and counted. The cells were injected i.p. in 0.2 ml of PBS into […] (5×10^7 cells/mouse). Fundus were observed using Micron IV (Phoenix, Pleasanton, Calif.) and clinical score was graded on a scale between 0-4 in half-point increments as described previously. For histological assessment, enucleated eyes were fixed in a buffer of 70% methanol and 30% acetic acid. The fixed tissues were embedded in paraffin and processed. Sections of 5 μm were cut and stained with H&E. The severity of EAU in each eye was scored on a scale between 0-4 in half-point increments, according to a semiquantitative system described previously.

[6] = test system: LN cells and SP cells; test: Flow cytometric analysis of lymph nodes and spleens; format: in vivo, mice
Excerpt: Cervical, axillary, and inguinal lymph nodes (LNs) were harvested from naive mice and EAU mice fed with a small molecule CSFR1 inhibitor or control diet. Single cell suspensions (1×10^6 cells/sample) were blocked with anti-mouse CD16/32 mAb (eBioscience, San Diego, Calif.) and stained with cell surface antibodies. Dead cells were stained with LIVE/DEAD™ fixable dead cell stain kit (blue or violet) (ThermoFisher). The following anti-mouse antibodies were used for staining: CD4-FITC (clone: GK1.5), CD25-PE (PC61.5), Foxp3-PE-Cy7 (FJK-6s), CD11c-FITC (N418), CD11b-PE (M1/70), CD45-APC (30-F11), IFN-γ-PE (XMG1.2), and IL-17A-APC (eBio17B7) (All purchased from eBioscience). CD3-Pacific blue (17A2) was purchase from BioLegend (San Diego, Calif.). For CD45/CD11b/CD11c detection, the cells were subjected for analysis without fixation. For regulatory T cell (CD3/CD4/CD25/Foxp3) staining, after staining with the cell surface markers, the cells were fixed and permeabilized with the Foxp3 staining buffer kit (eBioscience) and stained with Foxp3-PE-Cy7. For Th1 and Th17 detection (CD3/CD4/IFN-γ/IL-17), single cell suspensions were stimulated for 4 hours with 50 ng/mL phorbal myristate acetate (PMA) and 500 ng/ml ionomysin in culture media (10% FBS, RPMI1640, penicillin, streptomycin, β-mercaptoethanol) in the presence of GolgiPlug™ (BD Biosciences). The cells were stained with CD3-PB, CD4-FITC, and Live/Dead blue then fixed and permeabilized using an intracellular fixation and permeabilization buffer set (eBioscience). The cells were next stained with IFN-γ-PE and IL-17-APC. Flow cytometric data were acquired on a LSR II (BD Biosciences). Acquired data was analyzed using FlowJo 10.1 ( ).

[7] = test system: VCAM-1; test: Western blot of retinal VCAM-1; format: in vivo, mice; conditions: EAU day 14
Experimental: (§1) Whole retinas were homogenized with a hand homogenizer and briefly sonicated in M-PER® Mammalian Protein Extract Reagent containing Halt Phosphatase Inhibitor Cocktail (both Thermo Scientific), and then ultracentifuged for 15 min at 17,000 g to collect soluble proteins as supernatants. 20 μg of the samples were electrophoresed through 4-15% polyacrylamide gels (Bio-Rad, Hercules, Calif., USA), and transferred onto PVDF membranes. After blocking with 5% nonfat dried milk, the membranes were incubated overnight with a primary antibody at 4° C. The membranes were then incubated for 1 hour at room temperature with a HRP-labeled secondary antibody. The following antibodies were used: rabbit anti-ICAM1 (179707, abcam), rabbit anti-VCAM1 (134047, abcam), and rabbit anti-β-actin (4970; Cell Signaling Technology). Immunoreactive bands were visualized by ECL. The images were taken by ChemiDoc MP (Bio-Rad) and analyzed using Image Lab 4.6 (Bio-Rad).

[8] = test system: adherent retinal leukocytes; test: Lectin labeling of adherent retinal leukocytes; format: in vivo, mice; conditions: EAU day 10
Experimental: The retinal vasculature and adherent leukocytes were imaged by perfusion labeling with fluorescein-isothiocyanate (FITC)-conjugated concanavalin A lectin (conA; Vector Laboratories, Burlingame, Calif.), as described previously with modifications. Briefly, after deep anesthesia, the chest cavity was opened and a 27-gauge cannula was introduced into the left ventricle. The mice were perfused through the left ventricle first using 5 ml of PBS, followed by fixation with 1% paraformaldehyde (5 ml), FITC-conjugated conA (20 μg/ml in PBS, 5 mL), and 5 ml of PBS. The eyes were then fixed in 4% PFA for 15 mins and the retinas were flatmounted. The total number of conA stained adherent leukocytes in the major retinal vessels (venules, arterioles, and collecting vessels) were counted under the direct observation with an epifluorescent microscopy (Axio Observer Z1; Carl Zeiss, Bayern, Germany).

[9] = test system: IRBP-p; test: Delayed hypersensitivity (ear swelling) against IRBP-p; format: in vivo, C57BL/6 mice; conditions: IRBP-immunized animals, day 21
Experimental: Ag-specific delayed hypersensitivity (DH) was measure as previously described. On day 19 after immunization, mice were injected intradermally with 10 μg/10 μl of IRBP-p suspended in PBS into the pinna of one ear. Ear swelling was measured after 24 and 48 h using a micrometer (Mitutoyo, Tokyo, Japan). DH was measured as the difference in ear thickness before and after challenge. Results were expressed as: specific ear swelling=(24-h measurement−0-h measurement) for test ear−(24-h measurement−0-h measurement) for control ear.

[10] = test system: retinal microglia; test: Retinal microglia depletion by chow containing CSF1R inhibitor; format: in vivo; conditions: inhibitor-treated mice
Excerpt: The images of whole mount retinas were taken by a confocal microscopy (SP5 or SP8; Leica, Buffalo Grove, Ill., USA) or an epifluorescent microscopy (Axio Observer Z1; Carl Zeiss, Bayern, Germany). For microglial cell number counting, microglial cell bodies were manually counted based on the z-stack images. For microglial density evaluation, maximum intensity z-stack images were created and the images were processed with the smooth, the make binary, and the watershed tools. The area of particles was then calculated using the analyze particles tool, setting the size range to 5-1000. Amira 5 software (FEI, Hillsboro, Oreg., USA) was used to make 3D-reconstruction images.
Microglia depletion was performed using Cx3cr1^CreER×B6-iDTR (TG) mice or chow containing a small molecule CSFR1 inhibitor (Plexxikon Inc, Berkely, Calif., USA). To generate TG mice, Cx3cr1^CreER mice, which express Cre-ER fusion protein from endogenous CX3CR1 promoter enhance elements, were crossed with B6-iDTR mice, which contain a flox-STOP-flox diphtheria toxin receptor (DTR) in the ROSA26 locus. In this TG mice system, the Cre recombinase activation under the control of the Cx3cr1 promoter can be induced by tamoxifen, which leads to the surface expression of DTR on CX3CR1-expressing cells. […]

[11] = test system: EAU; test: Active immunization EAU, clinical and histopathological score; format: in vivo, C57BL/6 mice
[12] = test system: ICAM-1; test: Western blot of retinal ICAM-1; format: in vivo, mice; conditions: EAU day 10; P<0.01
Experimental: as §1

[13] = test system: EAU; test: EAU in Cx3cr1CreER x B6-iDTR mice given tamoxifen alone; format: in vivo; conditions: day 21; for clinical EAU score: tamoxifen alone, systemically via i.p. injection

behavioral or health problems [1]: No obvious behavioral or health problems
SMILES: COc1ncc(F)cc1CNc1ccc(Cc2c[nH]c3ncc(C)cc23)c(F)n1 [a small molecule CSFR1 inhibitor]
lymph node (LN) weight [2]: does not change; also recorded: neither parameter was affected
spleen weight [2]: does not change; also recorded: neither parameter was affected
lymphocyte proliferation [3]: did not affect
effect on circulating systemic immune cells [4]: minimal effect
severity of EAU in recipients (uveitogenicity of donor lymphocytes) ([5]; inhibitor given to donor mice 7 days prior to EAU induction, recipients on regular diet): did not affect the severity of EAU; also recorded: does not significantly suppress
EAU response (clinical and histopathological score) ([5]; inhibitor given to recipient mice 7 days prior to cell transfer): suppressed; also recorded: suppresses EAU
frequency of CD3+CD4+ T cells positive for IFN-γ+ or IL-17+ ([6]; LNs and spleens, day 14): does not suppress; also recorded: did not significantly change
frequency of regulatory T cells (CD4+CD25+Foxp3+) ([6]; LNs and spleens, day 14): did not increase
CD11c+CD11b+ cells ([6]; both LNs and splenic cells, day 14 of EAU, vs control-fed): suppresses; also recorded: decreased
retinal VCAM-1 expression [7]: unaffected
levels of adherent cells vs naïve mice [8]: similar
number of adherent cells vs control EAU mice [8]: significantly fewer
delayed hypersensitivity (DH) response, ear swelling [9]: did not affect
degree of microglia depletion [10]: 100%
clinical EAU score (development of EAU) ([11]; diet 1200 ppm started day -7, through day 21, p<0.001): suppresses EAU; also recorded: completely suppressed
clinical EAU score ([11]; diet started day 0, until 28 days after EAU induction): effectively suppressed
clinical EAU score ([11]; diet started day 7): partially suppressed
severity of EAU (clinical score) ([11]; diet started day 14): comparable to that of control mice
animals developing EAU ([11]; diet started day -7, by day 28, mild EAU, n=7): Only one animal
histological score ([11]; diet started day -7, day 21, p<0.01): suppressed EAU induction
retinal ICAM-1 protein expression vs naïve retina [12]: significantly higher

SMILES: CC/C(=C(\c1ccccc1)c1ccc(OCCN(C)C)cc1)c1ccccc1 [tamoxifen]
clinical EAU score [13]: significantly suppressed
clinical EAU score ([13]; listed as Tamoxifen): suppresses EAU
EAU severity (clinical EAU score) ([13]; tamoxifen topical via eye drops): did not significantly affect
